Measurements from patent US12240846B2 (Enliven Inc., priority 2020, dated 2025).

Key:
pCRKL in K562 cells = experiment: pCRKL ELISA assay in K562 cells; format: cell-based; conditions: Homo sapiens, 1.5 h, 90 minutes incubation, read-out: pCRKL ELISA, Cell Line IC50 (nM) K562
Description: (§1) K562 or Ba/F3 ABL T315I cells (2.0*10^5 cells/100 μl/well) were seeded in 96 well (Corning, cat #3799). Compounds were dissolved in DMSO, serially diluted in DMSO and then were added, mixed, and incubated for 90 minutes at 37° C., 5% CO2. Following the 90-minute incubation, plates were centrifuged for 5 min at 3000 RPM and supernatant was removed from each well. Cells were washed 3 times with 150 μl PBS prior to addition of 100 μl cell RIPA lysis buffer (Boston BioProducts, cat #BP-115D) supplied with 1× complete ULTRA cocktail inhibitor (Roche, 05892791001) and 1× PhosSTOP Phosphatase Inhibitor Cocktail Tablets (Roche, 04906837001). Cells were incubated with lysis buffer for 1 hour at 4° C. prior to storage at −80C.
(§2) A capture antibody able to detect phosphorylated and non-phosphorylated CRKL (R&D Systems, cat #AF5127) was added to Meso Scale Discovery (MSD) standard bind plates (MSD, cat #L15XA-3) at 5 ug/mL and incubated at 4° C. overnight. The next day, plates were washed with PBS+ 0.05% Tween20 (PBST) and 150 μl of 5% BSA blocking solution was added for 1 hour at room temperature with shaking. Plates were washed with PBST. Lysates were thawed and 30 μl of lysate was added to the MSD plates and incubated for 2 hours at room temperature with shaking. MSD plates were washed with PBST and 30 μl of a detection antibody that binds phosphorylated pCRKL (R&D Systems, cat #MAB6910) was added at 1 ug/mL to each well. Plates were incubated for 1 hour at room temperature with shaking. Plates were washed with PBST prior to addition of 30 μl of a sulfo tagged goat anti mouse detection antibody (MSD cat #R32AC-1). Plates were incubated for 1 hour at room temperature with shaking. Plates were washed with PBST prior to addition of 150 ul of 1×MSD read buffer T (MSD, cat #R92TC-2). Electrochemiluminescence (ECLU) was read on an MSD plate reader (Meso Scale Discovery). The remaining activity by calculated as follows: % Relative activity=100× (ELCUsample−ECLULC)/(ECLUHC−ECLULC). The low and high controls (LC/HC) are generated from lysate from wells without cells or with cells treated with 0.1% DMSO, respectively. IC50 values were calculated using XLFit software using a nonlinear regression model with a sigmoidal dose response and are shown in Table 4 and Table 5 below.

K562 cells = experiment: K562 cell proliferation assay (CellTiter-Glo); format: cell-based; conditions: Homo sapiens, K562 cell viability, 72 hours, read-out: Cell Line (IC50, nM) K562
ABL1 (T315I) = ABL1 (T315I) (Homo sapiens, UniProt P00519, T315I); experiment: Luminescence-based ABL kinase assay (300 μM ATP), ADP-Glo; format: biochemical
ABL1 = biological target: T1, ABL1 (Homo sapiens, UniProt P00519); experiment: as above; format: biochemical
T1 construct: purchased Carna Biosciences
Text: Compounds were serially diluted in DMSO. […] Luminescence signal positively correlates with kinase activity.

HL60 cells = experiment: HL60 cell proliferation assay (CellTiter-Glo); format: cell-based; conditions: Homo sapiens, HL-60, HL60 cell viability, 72 hours, read-out: Cell Line (IC50, nM) HL60
[1] = test system: pCRKL in Ba/F3 ABL1 (T315I) cells; experiment: pCRKL ELISA assay in Ba/F3 ABL1 (T315I) cells; format: cell-based; conditions: Mus musculus, BaF3, 1.5 h, 90 minutes incubation, read-out: pCRKL ELISA, Cell Line IC50 (nM) Ba/F3 ABL1 (T315I)
Description: as §1, §2

SMILES	IC50 (pCRKL in K562 cells) [nM]	IC50 (K562 cells) [nM]	IC50 (ABL1 (T315I)) [nM]	IC50 (ABL1) [nM]	IC50 (HL60 cells) [nM]	IC50 [1] [nM]
COc1nccc(OC2CC2)c1-c1cc2cc(NC(=O)[C@@H]3C[C@@H]3F)ncc2n1C [Compound 90, (1S,2S)-N-[2-(4-cyclopropoxy-2-methoxypyridin-3-yl)-1-methylpyrrolo[2,3-c]pyridin-5-yl]-2-fluorocyclopropane-1-carboxamide]	29.8	6.01	22.2	2.26	548	–
COc1ccc(F)cc1-c1cc2cc(NC(=O)[C@@H]3C[C@@H]3F)ncc2n1C [Compound 26, (1S,2S)-2-fluoro-N-[2-(5-fluoro-2-methoxyphenyl)-1-methylpyrrolo[2,3-c]pyridin-5-yl]cyclopropane-1-carboxamide]	303	174	8.99	30.3	2930	–
COc1nc(C)nc(OC)c1-c1cc2cc(NC(=O)[C@@H]3C[C@@H]3F)ncc2n1C [Compound 72, (1S,2S)-N-[2-(4,6-dimethoxy-2-methylpyrimidin-5-yl)-1-methylpyrrolo[2,3-c]pyridin-5-yl]-2-fluorocyclopropane-1-carboxamide]	137	38.7	54.7	37.1	3130	1140
COc1cc(C)nc(OC)c1-c1cc2cc(NC(=O)[C@@H]3C[C@@H]3F)ncc2n1C [Compound 98, (1S,2S)-N-(2-(2,4-dimethoxy-6-methylpyridin-3-yl)-1-methyl-1H-pyrrolo[2,3-c]pyridin-5-yl)-2-fluorocyclopropane-1-carboxamide]	99.4	63	38.8	11.6	605	253
COc1ccnc(OC)c1-c1cc2cc(NC(=O)[C@H]3C[C@@H]3CN3CCN(C)CC3)ncc2n1C (single isomer, unassigned) [Compound 120]	108	47.6	39.8	27.1	> 10000	–
COc1ncc(F)c(OC)c1-c1cc2cc(NC(=O)[C@@H]3C[C@@H]3F)ncc2n1C [Compound 38, (1S,2S)-2-fluoro-N-[2-(5-fluoro-2,4-dimethoxypyridin-3-yl)-1-methylpyrrolo[2,3-c]pyridin-5-yl]cyclopropane-1-carboxamide]	73.2	27.5	23.9	11.3	1350	248
COc1cccc(F)c1-c1c(C)c2cnc(NC(=O)[C@@H]3C[C@@H]3F)cc2n1C [Compound 54, (1S,2S)-2-fluoro-N-(2-(2-fluoro-6-methoxyphenyl)-1,3-dimethyl-1H-pyrrolo[3,2-c]pyridin-6-yl)cyclopropane-1-carboxamide]	151	51.1	6.51	51.9	957	–
Cn1c(-c2cccc3c2CCN3)cc2cc(NC(=O)[C@@H]3C[C@@H]3F)ncc21 [Compound 31, (1S,2S)-N-[2-(2,3-dihydro-1H-indol-4-yl)-1-methylpyrrolo[2,3-c]pyridin-5-yl]-2-fluorocyclopropane-1-carboxamide]	83.2	143	9.48	10.7	514	–
COc1ccnc(OC)c1-c1cc2cc(NC(=O)[C@@H]3C[C@@H]3F)ncc2n1C [Compound 75, (1S,2S)-N-[2-(2,4-dimethoxypyridin-3-yl)-1-methylpyrrolo[2,3-c]pyridin-5-yl]-2-fluorocyclopropane-1-carboxamide]	45.3	11.6	13.6	8.65	682	93.2
COc1nc(N)nc(OC)c1-c1cc2cc(NC(=O)[C@@H]3C[C@@H]3F)ncc2n1C [Compound 103, (1S,2S)-N-(2-(2-amino-4,6-dimethoxypyrimidin-5-yl)-1-methyl-1H-pyrrolo[2,3-c]pyridin-5-yl)-2-fluorocyclopropane-1-carboxamide]	35.5	17.7	7.85	3.98	385	172
COc1ccccc1-c1cc2cc(NC(=O)NCCN3CCN(C)CC3)ncc2n1C [Compound 79, 3-[2-(2-methoxyphenyl)-1-methylpyrrolo[2,3-c]pyridin-5-yl]-1-[2-(4-methylpiperazin-1-yl)ethyl]urea]	594	329	77	79.2	> 10000	–
[2H]C([2H])([2H])Oc1ncnc(OC([2H])([2H])[2H])c1-c1cc2cc(NC(=O)[C@@H]3C[C@@H]3F)ncc2n1C [Compound 95, (1S,2S)-N-(2-(4,6-bis(methoxy-d3)pyrimidin-5-yl)-1-methyl-1H-pyrrolo[2,3-c]pyridin-5-yl)-2-fluorocyclopropane-1-carboxamide]	66.3	47.8	43.5	12.7	3550	–
COc1ncccc1-c1cc2cc(NC(=O)[C@@H]3C[C@@H]3F)ncc2n1C [Compound 35, (1S,2S)-2-fluoro-N-[2-(2-methoxypyridin-3-yl)-1-methylpyrrolo[2,3-c]pyridin-5-yl]cyclopropane-1-carboxamide]	241	123	79.6	39.7	4150	329
COc1cccc(F)c1-c1cc2cc(NC(=O)[C@@H]3C[C@@H]3F)ncc2n1C [Compound 27, (1S,2S)-2-fluoro-N-[2-(2-fluoro-6-methoxyphenyl)-1-methylpyrrolo[2,3-c]pyridin-5-yl]cyclopropane-1-carboxamide]	553	112	1.85	40.7	761	–
COc1ccccc1-c1c(C)c2cnc(NC(=O)[C@H]3C[C@H]3F)cc2n1C [Compound 53, (1R,2R)-2-fluoro-N-[2-(2-methoxyphenyl)-1,3-dimethylpyrrolo[3,2-c]pyridin-6-yl]cyclopropane-1-carboxamide]	574	90.9	8.3	82.4	> 10000	–
COc1ccccc1-c1c(C)c2cnc(NC(=O)[C@@H]3C[C@@H]3F)cc2n1C [Compound 52, (1S,2S)-2-fluoro-N-(2-(2-methoxyphenyl)-1,3-dimethyl-1H-pyrrolo[3,2-c]pyridin-6-yl)cyclopropane-1-carboxamide]	416	109	4.23	51.3	1200	–
COc1ncnc(OC)c1-c1cc2cc(NC(=O)[C@@H]3C[C@@H]3F)ncc2n1C [Compound 39, (1S,2S)-N-[2-(4,6-dimethoxypyrimidin-5-yl)-1-methylpyrrolo[2,3-c]pyridin-5-yl]-2-fluorocyclopropane-1-carboxamide]	96.4	33.6	71.8	36	3780	263
COc1ncc(F)c(OC)c1-c1cc2cc(NC(=O)[C@H]3C[C@@H]3CN3CCN(C)CC3)ncc2n1C (single isomer, unassigned) [Compound 128]	61.8	28.6	12.9	13.4	> 10000	171
COc1ncc(F)cc1-c1cc2cc(NC(=O)[C@@H]3C[C@@H]3F)ncc2n1C [Compound 76, (1S,2S)-2-fluoro-N-[2-(5-fluoro-2-methoxypyridin-3-yl)-1-methylpyrrolo[2,3-c]pyridin-5-yl]cyclopropane-1-carboxamide]	326	200	55.4	46.7	6240	194
